1 molecule from patent publication US9353415B2, “Methods for functional analysis of high-throughput experimental data and gene groups identified therefrom” (Thomson Reuters (Scientific) LLC, priority 2006, dated 2016) can be followed below.

The assay has as its system CREB pathway. In words: microarray gene expression from the livers of rats exposed to drugs, mapped on pathway maps (signature networks method). To be noted: rat liver, treated vs untreated, custom cDNA two-channel arrays, five repeats; no threshold for fold change and P-values; FIG. 16C. The format is in vivo.

Protocol: This dataset contains microarray gene expression from the livers of rats exposed to three drugs: phenobarbital, mestranol, and tamoxifen. The data were produced by custom cDNA two-channel arrays. Five biological repeats were performed for each treatment and a set of five samples from the untreated animals were analyzed.
A pre-computed comprehensive set of overlapping canonical pathways derived from 450 signaling and metabolic pathway maps manually created using a general database, MetaCore™ was obtained. These pathways then were used as a framework for mapping experimental datasets as well as to calculate the network modules most relevant to specific pathways (FIG. 15). The maps feature approximately 3,000 proteins and over 2,000 overlapping human pathways. On these maps, typical signaling inputs (indicated by block arrows) are identified. The network modules were then generated as chains of interactions/reactions initiated at one of the signaling inputs and followed down to the last protein identified in the canonical pathway; such termini often are transcription factors and their targets. These pathways represent linear modules of cell signaling, usually parts of signaling cascades between secondary messengers and transcription factors. […]
FIG. 16C is the top scored CREB pathway map for the genes content of the network A. Gene expression was mapped without thresholds. […]

Take `CC/C(=C(\c1ccccc1)c1ccc(OCCN(C)C)cc1)c1ccccc1` [tamoxifen]: the “direction of expression (fold change) of genes on the highest scored pathway map, CREB pathway” value is reported as “down-regulated”.
